Series [1] is described as follows: Toxicity against Lactobacillus acidophilus at 200 ug/ml after 24 hrs by microplate reader.
A further series deals with HeLa. Put plainly: Cytotoxicity against human HeLa cells at 200 ug/ml after 24 hrs by MTT based colorimetric assay. Type of series: cell-based.
A further series has as its system Spermatozoa. The series can be described thus: Spermicidal activity against human spermatozoa assessed as immobilization measured for 60 seconds by visual scoring. Also on record: concentration or dose not given beside the values. Type of series: functional.
The subject of the next series is Trichomonas vaginalis. The series can be described thus: Antitrichomonas activity against Trichomonas vaginalis after 48 hrs by trypan blue exclusion assay. Type of series: functional.
The test system of series [2] is Candida albicans. Put plainly: Antifungal activity against Candida albicans after 48 hrs by broth microdilution assay. Type of series: functional.
The subject of the next series is Candida parapsilosis. Put plainly: Antifungal activity against Candida parapsilosis after 48 hrs by broth microdilution assay. Type of series: functional. To be noted: Lodderomyces parapsilosis.
Series [3] has as its system Candida albicans. The series can be described thus: Antifungal activity against Candida albicans MTCC-183 after 48 hrs by broth microdilution assay. Type of series: functional. Particulars: MTCC-183, 48 h. (Dilution methods test growth across graded concentrations, often in twofold steps.)
The test system of series [4] is Candida albicans. The series can be described thus: Antifungal activity against Candida albicans isolate CDRI after 48 hrs by broth microdilution assay. Type of series: functional.
Series [5] has as its system Candida albicans. The series can be described thus: Antifungal activity against Candida albicans NCIM-3557 after 48 hrs by broth microdilution assay. Type of series: functional. To be noted: NCIM-3557, 48 h.

In brackets after ≈: the same amount, converted by molar mass. A value given as a limit tells only on which side of the number the result lay.

Consider `O=[N+]([O-])c1cn(CCC(O)c2ccccc2)cn1` (configuration not stated), for which the Activity result in [1] is reported as “Non-toxic”; with HeLa, “Non-toxic”; in the series on Spermatozoa, 95%. Also, the MIC against Trichomonas vaginalis is 25 µg/mL (≈ 101 µM); against Candida albicans [2] it was over 50 µg/mL; against Candida parapsilosis, over 50 µg/mL; with Candida albicans [3] it was over 50 µg/mL; against Candida albicans [4], 50 µg/mL (≈ 202 µM); against Candida albicans [5] it was over 50 µg/mL.

On to `OC(CCn1cncn1)c1ccccc1` (configuration not stated), for which the Activity result in series [1] is listed as “Non-toxic”; with HeLa, “Non-toxic”; with Spermatozoa, 70%. Moreover, the MIC against Trichomonas vaginalis was over 200 µg/mL; in the series with Candida albicans [2], over 50 µg/mL; against Candida parapsilosis, over 50 µg/mL; against Candida albicans [3], over 50 µg/mL; in the series with Candida albicans [4] it was over 50 µg/mL; in the series with Candida albicans [5] it was over 50 µg/mL.

For `O=C(CCn1cncn1)c1ccccc1`, the results for the Activity result (in series [1]; with HeLa; in the series on Spermatozoa) were “Non-toxic”, “Non-toxic” and 60%, respectively. Also, the MIC in the series with Trichomonas vaginalis was over 200 µg/mL; with Candida albicans [2], over 50 µg/mL; against Candida parapsilosis, over 50 µg/mL; with Candida albicans [3], over 50 µg/mL; in the series with Candida albicans [4], 50 µg/mL (≈ 248 µM); with Candida albicans [5] it was over 50 µg/mL.

For `C(=C\c1ccccc1)/Cn1ccnc1`, the Activity result is recorded as “Non-toxic” in series [1], “Non-toxic” in the series with HeLa and 100% with Spermatozoa. Moreover, the MIC against Trichomonas vaginalis is over 200 µg/mL; with Candida albicans [2], over 50 µg/mL; in the series on Candida parapsilosis it was 50 µg/mL (≈ 271 µM); against Candida albicans [3], over 50 µg/mL; in the series with Candida albicans [4], 25 µg/mL (≈ 136 µM); with Candida albicans [5], over 50 µg/mL.

Molecule `Cc1ncc([N+](=O)[O-])n1CCO` [METRONIDAZOLE] had an MIC against Trichomonas vaginalis of 2 µg/mL (≈ 11.7 µM).

Take `FC(F)(F)c1ccc(OC(CCn2ccnc2)c2ccccc2)cc1` (configuration not stated): the results for the Activity entry (in series [1]; in the series on HeLa; with Spermatozoa) were “Toxic”, “Toxic” and 100%, respectively. For the same molecule, the MIC against Trichomonas vaginalis was found to be 12.5 µg/mL (≈ 36.1 µM); with Candida albicans [2] it was 12.5 µg/mL (≈ 36.1 µM); against Candida parapsilosis, 50 µg/mL (≈ 144 µM); against Candida albicans [3], 50 µg/mL (≈ 144 µM); in the series with Candida albicans [4], 50 µg/mL (≈ 144 µM); against Candida albicans [5] it was 50 µg/mL (≈ 144 µM).

As for `FC(F)(F)c1ccc(OC(CCn2cnc3ccccc32)c2ccccc2)cc1` (configuration not stated), the results for the Activity entry (in series [1]; in the series with HeLa; in the series with Spermatozoa) were “Toxic”, “Toxic” and 50%, respectively. Besides, the MIC is 25 µg/mL (≈ 63.1 µM) with Trichomonas vaginalis; over 50 µg/mL against Candida albicans [2]; over 50 µg/mL against Candida parapsilosis; over 50 µg/mL in the series with Candida albicans [3]; over 50 µg/mL in the series on Candida albicans [4]; over 50 µg/mL against Candida albicans [5].

`OC(CCn1cnc2ccccc21)c1ccccc1` (configuration not stated): the Activity entry is “Non-toxic” in [1], “Non-toxic” in the series with HeLa and 90% in the series with Spermatozoa. The MIC against Trichomonas vaginalis is over 200 µg/mL; in the series on Candida albicans [2], over 50 µg/mL; against Candida parapsilosis, over 50 µg/mL; against Candida albicans [3] it was over 50 µg/mL; in the series on Candida albicans [4], 50 µg/mL (≈ 198 µM); against Candida albicans [5], over 50 µg/mL.

In the case of `Cc1nccn1CCC(=O)c1ccccc1`, the values for the Activity result (in series [1]; in the series on HeLa; with Spermatozoa) were “Non-toxic”, “Toxic” and 100%, respectively. The MIC with Trichomonas vaginalis is over 200 µg/mL; in the series on Candida albicans [2] it was over 50 µg/mL; against Candida parapsilosis it was over 50 µg/mL; in the series with Candida albicans [3] it was over 50 µg/mL; in the series on Candida albicans [4], 50 µg/mL (≈ 233 µM); with Candida albicans [5] it was over 50 µg/mL.

Consider `OC(CCn1ccnc1)c1ccccc1` (configuration not stated), for which the Activity entry was “Non-toxic” in series [1], “Non-toxic” in the series with HeLa and 90% in the series on Spermatozoa. Also, the MIC in the series with Trichomonas vaginalis was over 200 µg/mL; in the series with Candida albicans [2], over 50 µg/mL; against Candida parapsilosis, over 50 µg/mL; against Candida albicans [3] it was over 50 µg/mL; with Candida albicans [4] it was 50 µg/mL (≈ 247 µM); against Candida albicans [5], over 50 µg/mL.

As to `OC(Cn1cncn1)(Cn1cncn1)c1ccc(F)cc1F` [FLUCONAZOLE], the MIC against Candida albicans [2] turned out to be 0.5 µg/mL (≈ 1.63 µM); against Candida parapsilosis it was 0.5 µg/mL (≈ 1.63 µM); in the series on Candida albicans [3], 0.25 µg/mL (≈ 0.816 µM); with Candida albicans [4] it was 0.25 µg/mL (≈ 0.816 µM); with Candida albicans [5] it was 0.25 µg/mL (≈ 0.816 µM).

The term MIC denotes the lowest concentration that inhibits growth of the organism.

(Values after ChEMBL document CHEMBL1641578, “Design and synthesis of 3-(azol-1-yl)phenylpropanes as microbicidal spermicides for prophylactic contraception” (Bioorg Med Chem Lett, 2011).)
